Our source for the remaining activity values is patent publication US20230131899A1, “INHIBITORS OF MICROBIALLY INDUCED AMYLOID” (Axial Therapeutics, Inc., priority 2020, published 2023).

The target in this assay is T1, E. coli CsgA (Escherichia coli, UniProt P28307).
T1 construct: made in house; host or cells: E. coli NEB 3016 slyD::kan, pET11d
Put plainly: In vitro ThioflavinT assay of CsgA aggregation (CsgA ThT Assay). Format: biochemical. As to conditions: for remaining activity at 25 µM: compound 25 μM; for remaining activity at 100 µM: compound 100 μM. An outline of the steps: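 Purified C-terminal His-tagged CsgA, monomerised by desalting and 30-kDa filtration, at 2-20 μM with 20-40 μM ThT in 50 mM potassium phosphate pH 7.3, 1% DMSO, compounds 3.125-200 uM; room temperature, fluorescence (ex 438/em 495 nm) read every 15 min. Background-subtracted signal expressed as percent inhibition versus vehicle at 6-6.5 or 8-9 h, or as percent control AUC.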

Where [1] appears, read: read-out: CsgA ThT Assay (2 μM CsgA) % Control Bmax 25 μM, activity range, class symbol, CsgA 2 μM, white plates.
Where [2] appears, read: read-out: CsgA ThT Assay (2 μM CsgA) % Control Bmax 25 μM, mean Bmax as percentage of DMSO control, CsgA 2 μM, white plates.
Setting [3] is: read-out: CsgA ThT Assay (2 μM CsgA) % Control Bmax 100 μM, activity range, class symbol, CsgA 2 μM, white plates.
The mark [4] stands for this setting: read-out: CsgA ThT Assay (2 μM CsgA) % Control Bmax 100 μM, mean Bmax as percentage of DMSO control, CsgA 2 μM, white plates.
Where [5] appears, read: read-out: CsgA ThT Assay (10 μM CsgA) % Control AUC at 1005 minutes, 25 μM (activity range), CsgA 10 μM, black plates, 1005 minutes, class symbol.
Setting [6] is: read-out: CsgA ThT Assay (10 μM CsgA) % Control AUC at 1005 minutes, 25 μM, mean AUC as % of DMSO control, CsgA 10 μM, black plates, 1005 minutes.
Where [7] appears, read: read-out: CsgA ThT Assay (10 μM CsgA) % Control AUC at 1005 minutes, 100 μM (activity range), CsgA 10 μM, black plates, 1005 minutes, class symbol.
Where [8] appears, read: read-out: CsgA ThT Assay (10 μM CsgA) % Control AUC at 1005 minutes, 100 μM, mean AUC as % of DMSO control, CsgA 10 μM, black plates, 1005 minutes.

Structures are written as SMILES. Like-named read-outs stand apart in the source and are kept apart here. Some results are limits rather than exact numbers.

T1 sequence (P28307 23-151): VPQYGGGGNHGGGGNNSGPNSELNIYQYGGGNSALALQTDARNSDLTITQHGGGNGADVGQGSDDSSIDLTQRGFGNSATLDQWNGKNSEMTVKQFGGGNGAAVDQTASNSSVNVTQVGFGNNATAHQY

For `CCCN1CC(C(=O)O)n2c(c(-c3cccc(C(F)(F)F)c3)c(C(F)(F)c3cccc4ccccc34)cc2=O)S1(=O)=O` (stereo not shown) [Compound 138, 8-(difluoro(naphthalen-1-yl)methyl)-6-oxo-2-propyl-9-(3-(trifluoromethyl)phenyl)-3,4-dihydro-2H,6H-pyrido[1,2-e][1,2,5]thiadiazine-4-carboxylic acid 1,1-dioxide], the remaining activity at 25 µM is over 60% under setting [1] and 73% under setting [2]. Moreover, the remaining activity at 100 µM by setting is: under setting [3], 31 to 60%; under setting [4], 43%.
For `O=C(O)C1CN(Cc2ccccc2)c2c(-c3cccc(C(F)(F)F)c3)c(Cc3cccc4ccccc34)cc(=O)n21` (stereo not shown) [Compound 187, 1-benzyl-7-(naphthalen-1-ylmethyl)-5-oxo-8-(3-(trifluoromethyl)phenyl)-1,2,3,5-tetrahydroimidazo[1,2-a]pyridine-3-carboxylic acid] the same measures were over 60%, 69%, over 60% and 74%.
On to `O=C(O)C1CN(CCCCCCN2CC(C(=O)O)n3c2c(-c2cccc(C(F)(F)F)c2)c(Cc2cccc4ccccc24)c(Cl)c3=O)c2c(-c3cccc(C(F)(F)F)c3)c(Cc3cccc4ccccc34)c(Cl)c(=O)n21` (stereo not shown) [Compound 193, 1,1′-(hexane-1,6-diyl)bis(6-chloro-7-(naphthalen-1-ylmethyl)-5-oxo-8-(3-(trifluoromethyl)phenyl)-1,2,3,5-tetrahydroimidazo[1,2-a]pyridine-3-carboxylic acid)], for which the remaining activity at 25 µM is, setting by setting: under setting [1], 31 to 60%; under setting [2], 53%. Further, the remaining activity at 100 µM under setting [3] is under 10% and the remaining activity at 100 µM under setting [4] came to 10%.
Regarding `Cn1c(=O)c2c(nc(CCCCCCN3CC(C(=O)O)n4c(c(-c5cccc(C(F)(F)F)c5)c(Cc5cccc6ccccc56)cc4=O)S3(=O)=O)n2C)n(C)c1=O` (stereo not shown) [Compound 046, 8-(naphthalen-1-ylmethyl)-6-oxo-9-(3-(trifluoromethyl)phenyl)-2-(6-(1,3,7-trimethyl-2,6-dioxo-2,3,6,7-tetrahydro-1H-purin-8-yl)hexyl)-3,4-dihydro-2H,6H-pyrido[1,2-e][1,2,5]thiadiazine-4-carboxylic acid 1,1-dioxide], the remaining activity at 25 µM reads like this: under setting [5], 31 to 60%; under setting [6], 55%. Further, the remaining activity at 100 µM runs as follows: under setting [7], 31 to 60%; under setting [8], 55%.
Take `O=C(O)[C@H]1CN(Cc2ccccc2)c2c(-c3cccc(C(F)(F)F)c3)c(Cc3cccc4ccccc34)c(Cl)c(=O)n21` (single isomer, unassigned) [Compound 004b]: the remaining activity at 25 µM under setting [1] lay within 31 to 60% and the remaining activity at 25 µM under setting [2] is 54%. The remaining activity at 100 µM is, setting by setting: under setting [3], 31 to 60%; under setting [4], 40%.
Consider `CC(C)N1CC(C(=O)O)n2c(c(-c3cccc(C(F)(F)F)c3)c(Cc3cccc4ccccc34)c(C(N)=O)c2=O)S1(=O)=O` (stereo not shown) [Compound 175, 7-carbamoyl-2-isopropyl-8-(naphthalen-1-ylmethyl)-6-oxo-9-(3-(trifluoromethyl)phenyl)-3,4-dihydro-2H,6H-pyrido[1,2-e][1,2,5]thiadiazine-4-carboxylic acid 1,1-dioxide], for which the remaining activity at 25 µM was 31 to 60% under setting [1] and 33% under setting [2]. Besides, the remaining activity at 100 µM was 11 to 31% under setting [3] and 24% under setting [4].
Turning to `Cn1c(=O)c2c(ncn2CCCCN2CC(C(=O)O)n3c(c(-c4cccc(C(F)(F)F)c4)c(Cc4cccc5ccccc45)cc3=O)S2(=O)=O)n(C)c1=O` (stereo not shown) [Compound 033, 2-(4-(1,3-dimethyl-2,6-dioxo-1,2,3,6-tetrahydro-7H-purin-7-yl)butyl)-8-(naphthalen-1-ylmethyl)-6-oxo-9-(3-(trifluoromethyl)phenyl)-3,4-dihydro-2H,6H-pyrido[1,2-e][1,2,5]thiadiazine-4-carboxylic acid 1,1-dioxide], the remaining activity at 25 µM runs as follows: under setting [5], over 60%; under setting [6], 68%. The remaining activity at 100 µM under setting [7] is over 60% and the remaining activity at 100 µM under setting [8] was 79%.
For `CCCN1CC(C(=O)O)n2c(c(-c3cccc(C(F)(F)F)c3)c(Cc3cccc4ccccc34)c(Cl)c2=O)S1(=O)=O` (stereo not shown) [Compound 142, 7-chloro-8-(naphthalen-1-ylmethyl)-6-oxo-2-propyl-9-(3-(trifluoromethyl)phenyl)-3,4-dihydro-2H,6H-pyrido[1,2-e][1,2,5]thiadiazine-4-carboxylic acid 1,1-dioxide], the remaining activity at 25 µM under setting [1] is over 60% and the remaining activity at 25 µM under setting [2] stood at 87%. Moreover, the remaining activity at 100 µM is over 60% under setting [3] and 121% under setting [4].
With `O=C(O)C1CSc2c(-c3cccc(C(F)(F)F)c3)c(Cc3cccc4ccccc34)cc(=S)n21` (stereo not shown) [Compound 054, 7-(naphthalen-1-ylmethyl)-5-thioxo-8-(3-(trifluoromethyl)phenyl)-2,3-dihydro-5H-thiazolo[3,2-a]pyridine-3-carboxylic acid], the remaining activity at 25 µM under setting [5] lay in the range of 31 to 60% and the remaining activity at 25 µM under setting [6] is 44%. For the same compound, the remaining activity at 100 µM was 31 to 60% under setting [7] and 50% under setting [8].
As to `CCCN1CC(C(=O)O)n2c(c(-c3cccc(C(F)(F)F)c3)c(Cc3cccc4ccccc34)c(OCC)c2=O)S1(=O)=O` (stereo not shown) [Compound 143, 7-ethoxy-8-(naphthalen-1-ylmethyl)-6-oxo-2-propyl-9-(3-(trifluoromethyl)phenyl)-3,4-dihydro-2H,6H-pyrido[1,2-e][1,2,5]thiadiazine-4-carboxylic acid 1,1-dioxide], the remaining activity at 25 µM runs as follows: under setting [1], over 60%; under setting [2], 87%. For the same compound, the remaining activity at 100 µM under setting [3] is over 60% and the remaining activity at 100 µM under setting [4] was determined as 88%.
Consider `NC(=O)c1c(Cc2cccc3ccccc23)c(-c2cccc(C(F)(F)F)c2)c2n(c1=O)C(C(=O)O)CN(CCCO)S2(=O)=O` (stereo not shown) [Compound 184, 7-carbamoyl-2-(3-hydroxypropyl)-8-(naphthalen-1-ylmethyl)-6-oxo-9-(3-(trifluoromethyl)phenyl)-3,4-dihydro-2H,6H-pyrido[1,2-e][1,2,5]thiadiazine-4-carboxylic acid 1,1-dioxide], for which the remaining activity at 25 µM was 31 to 60% under setting [1] and 45% under setting [2]. The remaining activity at 100 µM is, setting by setting: under setting [3], 11 to 31%; under setting [4], 22%.
As to `O=C(O)C1n2c(c(-c3cccc(C(F)(F)F)c3)c(Cc3cccc4ccccc34)nc2=O)SC12CCCC2` (stereo not shown) [Compound 053, 7′-(naphthalen-1-ylmethyl)-5′-oxo-8′-(3-(trifluoromethyl)phenyl)-3′H,5′H-spiro[cyclopentane-1,2′-thiazolo[3,2-c]pyrimidine]-3′-carboxylic acid], the remaining activity at 25 µM is 31 to 60% under setting [5] and 39% under setting [6]. Further, the remaining activity at 100 µM reads like this: under setting [7], 11 to 31%; under setting [8], 12%.
Consider `O=C(O)C1CN(Cc2cccc3ccccc23)c2c(-c3cccc(C(F)(F)F)c3)c(Cc3cccc4ccccc34)c(Cl)c(=O)n21` (stereo not shown) [Compound 200, 6-chloro-1,7-bis(naphthalen-1-ylmethyl)-5-oxo-8-(3-(trifluoromethyl)phenyl)-1,2,3,5-tetrahydroimidazo[1,2-a]pyridine-3-carboxylic acid], for which the remaining activity at 25 µM by setting is: under setting [1], 31 to 60%; under setting [2], 52%. For the same compound, the remaining activity at 100 µM reads like this: under setting [3], under 10%; under setting [4], 7%.
